Measurements published in ChEMBL document CHEMBL1130453, “Synthesis and biological activity of a new anti-factor Xa pentasaccharide with a C-interglycosidic bond” (Bioorg Med Chem Lett, 1997).

How the values were obtained:
[1] = target: Coagulation factor X (Homo sapiens) (UniProt P00742); experiment: Anti-factor Xa activity by amidolytic method.
Antithrombin-III = Antithrombin-III (Homo sapiens, UniProt P01008); experiment: In vitro binding affinity against antithrombin III (AT III) was determined by fluorescence spectroscopy
Antithrombin-III, sequence (P01008 whole entry): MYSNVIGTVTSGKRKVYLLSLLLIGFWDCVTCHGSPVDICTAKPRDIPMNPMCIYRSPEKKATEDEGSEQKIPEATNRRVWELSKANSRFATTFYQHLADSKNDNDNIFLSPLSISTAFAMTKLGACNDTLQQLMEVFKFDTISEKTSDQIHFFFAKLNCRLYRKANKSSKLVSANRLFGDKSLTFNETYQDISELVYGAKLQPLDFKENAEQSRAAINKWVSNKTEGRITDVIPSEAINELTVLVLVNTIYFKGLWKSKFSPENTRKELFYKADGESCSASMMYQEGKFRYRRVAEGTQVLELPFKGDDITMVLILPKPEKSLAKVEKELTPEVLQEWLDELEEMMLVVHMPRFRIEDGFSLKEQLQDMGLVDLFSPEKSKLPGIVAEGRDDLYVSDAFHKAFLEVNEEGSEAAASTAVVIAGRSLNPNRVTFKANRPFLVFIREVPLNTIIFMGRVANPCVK

Coagulation factor X (Homo sapiens), sequence (P00742 41-179 limits assumed): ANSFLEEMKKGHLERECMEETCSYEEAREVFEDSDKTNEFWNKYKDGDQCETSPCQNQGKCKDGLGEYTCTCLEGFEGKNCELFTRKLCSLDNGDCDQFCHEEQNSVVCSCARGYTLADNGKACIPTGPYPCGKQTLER
Coagulation factor X (Homo sapiens), sequence (P00742 235-488 limits assumed): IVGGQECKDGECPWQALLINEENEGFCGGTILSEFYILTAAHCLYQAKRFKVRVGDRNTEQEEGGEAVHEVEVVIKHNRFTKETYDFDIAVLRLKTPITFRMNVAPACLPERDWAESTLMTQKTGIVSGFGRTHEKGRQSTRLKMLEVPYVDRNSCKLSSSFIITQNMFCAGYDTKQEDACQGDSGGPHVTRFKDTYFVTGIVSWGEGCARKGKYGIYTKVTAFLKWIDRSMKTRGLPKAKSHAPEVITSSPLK

Anti-Factor Xa activity [1] | Kd (Antithrombin-III) | SMILES
1180 U/mg | – | CO[C@H]1O[C@@H](COS(=O)(=O)O)[C@@H](O[C@@H]2O[C@@H](C(=O)O)[C@H](O[C@H]3O[C@@H](COS(=O)(=O)O)[C@@H](O[C@@H]4O[C@@H](C(=O)O)[C@@H](O[C@H]5O[C@@H](COS(=O)(=O)O)[C@@H](OC)[C@H](OC)[C@@H]5OC)[C@H](OC)[C@@H]4OC)[C@H](OS(=O)(=O)O)[C@@H]3OS(=O)(=O)O)[C@H](OC)[C@H]2OC)[C@H](OS(=O)(=O)O)[C@@H]1OS(=O)(=O)O
880 U/mg | 2.8 nM | CO[C@H]1O[C@@H](COS(=O)(=O)O)[C@@H](O[C@@H]2O[C@@H](C(=O)O)[C@H](O[C@H]3O[C@@H](COS(=O)(=O)O)[C@@H](O[C@@H]4O[C@@H](C(=O)O)[C@@H](C[C@H]5O[C@@H](COS(=O)(=O)O)[C@@H](OC)[C@H](OC)[C@@H]5OC)[C@H](OC)[C@@H]4OC)[C@H](OS(=O)(=O)O)[C@@H]3OS(=O)(=O)O)[C@H](OC)[C@H]2OC)[C@H](OS(=O)(=O)O)[C@@H]1OS(=O)(=O)O
